Data as given in patent publication US6218431A, “Substituted biphenyls” (Bayer Corporation, priority 1997, dated 2001).

Target: T1, glucagon receptor (Homo sapiens, UniProt P47871)
T1 construct: expressed in transfected cells; host or cells: Chinese Hamster Ovary cells (CHO-HGR), membranes
Assay: glucagon receptor binding assay (125I-glucagon, CHO-HGR membranes)
Conditions: for IC50: 125I-glucagon, 60 min at room temperature, read-out: IC50; for inhibition at 20 µM: reported where 20 μM did not reduce glucagon binding by 50%
Procedure: The affinity for the glucagon receptor of compounds of the present invention is determined by the glucagon receptor binding assay. Membranes were prepared from Chinese Hamster Ovary cells expressing the glucagon receptor (CHO-HGR) by scraping the cells into hypotonic lysis buffer (10 mM Tris, pH 7.4, 2 mM EDTA, 5 mM MgCl2 and 1 mM PMSF) and subjecting the material to Polytron homogenization. Nuclei were removed by a 15-min 800×g centrifugation step conducted at 4° C. Membranes containing the receptor were collected by centrifugation at 15,000×gfor 15 min at 4° C. The membranes were washed once in lysis buffer and suspended in 0.25 M sucrose, 10 mM Tris, 5 mM EDTA, pH 7.4. The membranes were used in ligand binding studies as reported (Yoo-Warren, H., Willse, A. G., Hancock, N., Hull, J., McCaleb, M., and Livingston, J. Regulation of Rat Glucagon Receptor Expression. Biochem. Biophysical Res. Commun. 1994, 205, 347-353). In brief, 10 ug of membrane protein was incubated in 130 μl of binding buffer that consisted of 20 mM Tris, […], 1 mM EDTA, 1 mg/ml BSA, and 1 mg/ml bacitracin. The membrane suspension was placed in each well of a 96-well filtration plate (glass fiber type C, Millipore). […] Following the addition of test compound, 50 μl of ^125 I-glucagon (9 fmol) (NEN) was added to each well. Control wells contained membranes, 0.5% DMSO (solvent for test compounds), radiolabeled glucagon without and with excess native glucagon (1 μM) to establish nonspecific binding. The plates were incubated for 60 min at room temperature, and then filtered on a Mllipore vacuum apparatus. Following a wash step with ice-cold PBS/0.1% BSA, the filters were punched into test tubes, and the membrane bound radioactivity was determined.

T1 sequence (P47871 26-477): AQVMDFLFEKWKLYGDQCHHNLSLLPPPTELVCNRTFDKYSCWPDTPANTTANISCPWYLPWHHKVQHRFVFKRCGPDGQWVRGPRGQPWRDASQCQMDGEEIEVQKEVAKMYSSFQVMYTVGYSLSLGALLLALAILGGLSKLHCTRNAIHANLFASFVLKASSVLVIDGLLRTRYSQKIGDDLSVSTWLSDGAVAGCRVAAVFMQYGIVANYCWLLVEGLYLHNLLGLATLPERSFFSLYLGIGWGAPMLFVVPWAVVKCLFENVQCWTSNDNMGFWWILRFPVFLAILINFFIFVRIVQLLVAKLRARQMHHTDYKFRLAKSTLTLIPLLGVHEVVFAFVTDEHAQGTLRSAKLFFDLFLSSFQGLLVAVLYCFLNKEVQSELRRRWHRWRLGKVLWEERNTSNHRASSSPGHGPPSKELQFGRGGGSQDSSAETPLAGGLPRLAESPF

IC50 | inhibition at 20 µM | Structure (SMILES)
1900 nM |  | COc1ccc(SCc2c(C(C)C)nc(C(C)C)c(CO)c2-c2ccc(F)cc2)cc1 [Example 56, 2,6-Diisopropyl-3-hydroxymethyl-4-(4-fluorophenyl)-5-[(4-methoxy-phenyl)thio]methylpyridine]
1100 nM |  | Cc1cccc(SCc2c(C(C)C)nc(C(C)C)c(CO)c2-c2ccc(F)cc2)c1 [Example 57, 2,6-Diisopropyl-3-hydroxymethyl-4-(4-fluorophenyl)-5-[(3-methyl-phenyl)thio]methylpyridine]
1500 nM |  | Cc1ccccc1SCc1c(C(C)C)nc(C(C)C)c(CO)c1-c1ccc(F)cc1 [Example 58, 2,6Diisopropyl-3-hydroxymethyl-4-(4-fluorophenyl)-5-[(2-methyl-phenyl)thio]methylpyridine]
1000 nM |  | CC(C)c1nc(C(C)C)c(CSc2cccc(F)c2)c(-c2ccc(F)cc2)c1CO [Example 59, 2,6-Diisopropyl-3-hydroxymethyl-4-(4-fluorophenyl)-5-[(3-fluoro-phenyl)thio]methylpyridine]
1600 nM |  | COc1ccccc1SCc1c(C(C)C)nc(C(C)C)c(CO)c1-c1ccc(F)cc1 [Example 60, 2,6-Diisopropyl-3-hydroxymethyl-4-(4-fluorophenyl)-5-[(2-methoxy-phenyl)thio]methylpyridine]
3400 nM |  | Cc1cc(C)cc(SCc2c(C(C)C)nc(C(C)C)c(CO)c2-c2ccc(F)cc2)c1 [Example 61, 2,6-Diisopropyl-3-hydroxymethyl-4-(4-fluorophenyl)-5-[(3,5dimethylphenyl)thio]methylpyridine]
1100 nM |  | CCc1ccc(SCc2c(C(C)C)nc(C(C)C)c(CO)c2-c2ccc(F)cc2)cc1 [Example 62, 2,6-Diisopropyl-3-hydroxymethyl-4-(4-fluorophenyl)-5-[(4-ethyl-phenyl)thio]methylpyridine]
1700 nM |  | CC(C)c1ccc(SCc2c(C(C)C)nc(C(C)C)c(CO)c2-c2ccc(F)cc2)cc1 [Example 63, 2,6-Diisopropyl-3-hydroxymethyl-4-(4-fluorophenyl)-5-[(4-isopropyl-phenyl)thio]methylpyridine]
1100 nM |  | CC(C)c1nc(C(C)C)c(CSCc2ccccc2)c(-c2ccc(F)cc2)c1CO [Example 64]
750 nM |  | CC(C)c1nc(C(C)C)c(CSCCc2ccccc2)c(-c2ccc(F)cc2)c1CO [Example 65, 2,6-Diisopropyl-3-hydroxymethyl-4-(4-fluorophenyl)-5-[(phenethyl)-thiomethyl]pyridine]
1000 nM |  | CCCSCc1c(C(C)C)nc(C(C)C)c(CO)c1-c1ccc(F)cc1 [Example 66, 2,6-Diisopropyl-3-hydroxymethyl4-(4-fluorophenyl)-5-(propylthio)-methylpyridine]
1100 nM |  | CSCc1c(C(C)C)nc(C(C)C)c(CO)c1-c1ccc(F)cc1 [Example 67, 2,6-Diisopropyl-3-hydroxymethyl-4-(4-fluorophenyl)-5-(methylthio)-methylpyridine]
13000 nM |  | CC(C)c1nc(C(C)C)c(CSc2ccc([N+](=O)[O-])cc2)c(-c2ccc(F)cc2)c1CO [Example 68, 2,6-Diisopropyl-3-hydroxymethyl-4-(4-fluorophenyl)-5-[(4-nitrophenyl)-thio]methylpyridine]
 | 40.2% | CC(C)c1nc(C(C)C)c(CN2CCOCC2)c(-c2ccc(F)cc2)c1CO [Example 69, 2,6-Diisopropyl-3-hydroxymethyl-4-(4-fluorophenyl)-5-(morpholinomethyl)pyridine]
12000 nM |  | CC(C)c1nc(C(C)C)c(CN2CCCCC2)c(-c2ccc(F)cc2)c1CO [Example 70, 2,6-Diisopropyl-3-hydroxymethyl-4-(4-fluorophenyl)-5-(piperidinomethyl)pyridine]
 | 46.3% | CC(C)c1nc(C(C)C)c(CN2CCCC2)c(-c2ccc(F)cc2)c1CO [Example 71, 2,6-Diisopropyl-3-hydroxymethyl-4-(4-fluorophenyl)-5-(pyrrolindino-methyl)pyridine]
 | 42.1% | CC(C)c1nc(C(C)C)c(CN2CCC(c3ccccc3)CC2)c(-c2ccc(F)cc2)c1CO [Example 72]
 | 17.5% | COC(=O)c1c(C(C)C)nc(C(C)C)c(CN2CCC(N3CCCCC3)CC2)c1-c1ccc(F)cc1 [Example 73, Methyl-2,6-diisopropyl-4-(4-fluorophenyl)-5-(4piperidinopiperidin-1-yl)methyl-3-pyridinecarboxylate]
 | 27.1% | CC(C)c1nc(C(C)C)c(CN2CCC(N3CCCCC3)CC2)c(-c2ccc(F)cc2)c1CO [Example 74, 2,6-Diisopropyl-3-hydroxymethyl-4-(4-fluorophenyl)-5-[(4-piperidinopiperidin-1-yl)methyl]pyridine]

IC50 | inhibition at 20 µM | Structure (SMILES)
 | 34.2% | CC(C)c1nc(C(C)C)c(CN2CCN(c3ccccc3)CC2)c(-c2ccc(F)cc2)c1CO [Example 75, 2,6-Diisopropyl-3-hydroxymethyl-4-(4-fluorophenyl)-5-[(4-phenylpiperazin-1-yl)methyl]pyridine]
 | 5.18% | CC(C)c1nc(C(C)C)c(Cn2ccnc2)c(-c2ccc(F)cc2)c1CO [Example 76, 2,6-Diisopropyl-3-hydroxymethyl-4-(4-fluorophenyl)-5-(imidazol-1-yl)-methylpyridine]
6000 nM |  | CC(C)c1nc(C(C)C)c(CNC2CC2)c(-c2ccc(F)cc2)c1CO [Example 77, 2,6-Diisopropyl-3-hydroxymethyl-4-(4-fluorophenyl)-5-(cyclopropyl-amino)methylpyridine]
7500 nM |  | CC(C)c1nc(C(C)C)c(CNC2CCCCC2)c(-c2ccc(F)cc2)c1CO [Example 78, 2,6-Diisopropyl-3-hydroxymethyl-4-(4-fluorophenyl)-5-(cyclohexylamino)methylpyridine]
10000 nM |  | CC(C)c1nc(C(C)C)c(CN(C)C)c(-c2ccc(F)cc2)c1CO [Example 79, 2,6-Diisopropyl-3-hydroxymethyl-4-(4-fluorophenyl)-5-(dimethylamino)-methylpyridine]
 | 38.8% | CCCCN(CCCC)Cc1c(C(C)C)nc(C(C)C)c(CO)c1-c1ccc(F)cc1 [Example 80, 2,6-Diisopropyl-3-hydroxymethyl-4-(4fluorophenyl)-5-(dibutylamino)-methylpyridine]
7500 nM |  | Cc1c(C(C)C)nc(C(C)C)c(CO)c1-c1ccc(F)cc1 [Example 81]
1900 nM |  | CC(C)c1nc(C(C)C)c(CC=Cc2ccccc2)c(-c2ccc(F)cc2)c1CO [Example 82, 2,6-Diisopropyl-3-hydroxymethyl-4-(4-fluorophenyl)-5-(3-phenyl-2-propenyl)pyridine]
650 nM |  | CC(C)c1nc(C(C)C)c(CCCc2ccccc2)c(-c2ccc(F)cc2)c1CO [Example 83]
1900 nM |  | Cc1ccccc1CCCc1c(C(C)C)nc(C(C)C)c(CO)c1-c1ccc(F)cc1 [Example 84, 2,6-Diisopropyl-3-hydroxymethyl-4-(4-fluorophenyl)-5-[3-(2-methylphenyl)propyl]pyridine]
1500 nM |  | Cc1cccc(CCCc2c(C(C)C)nc(C(C)C)c(CO)c2-c2ccc(F)cc2)c1 [Example 85, 2,6-Diisopropyl-3-hydroxymethyl-4-(4-fluorophenyl)-5-[3-(3-methyl-5-phenyl)propyl]pyridine]
1100 nM |  | Cc1ccc(CCCc2c(C(C)C)nc(C(C)C)c(CO)c2-c2ccc(F)cc2)cc1 [Example 86, 2,6-Diisopropyl-3-hydroxymethyl-4-(4-fluorophenyl)-5-[3-(4methyl-phenyl)propyl]pyridine]
1900 nM |  | C=CCc1c(C(C)C)nc(C(C)C)c(CO)c1-c1ccc(F)cc1 [Example 87, 2,6-Diisopropyl-3-hydroxymethyl-4-(4fluorophenyl)-5-(2-propenyl)-pyridine]
 | 24.8% | CC(C)c1nc(C(C)C)c(CCCCO)c(-c2ccc(F)cc2)c1CO [Example 88, 2,6-Diisopropyl-3-hydroxymethyl-4-(4-fluorophenyl)-5-(4-hydroxy-butyl)pyridine]
 | 36% | CC(C)c1nc(C(C)C)c(CCCN(C)C)c(-c2ccc(F)cc2)c1CO [Example 89, 2,6-Diisopropyl-3-hydroxymethyl-4-(4fluorophenyl)-5-[(3-dimethyl-amino)propyl]pyridine]
 | 29.1% | CC(C)c1nc(C(C)C)c(CCCCCCCN(C)C)c(-c2ccc(F)cc2)c1CO [Example 90]
 | 14.2% | CC(C)c1nc(C(C)C)c(CCCCCCCCC(=O)O)c(-c2ccc(F)cc2)c1CO [Example 91]
 | 11.6% | CC(C)c1nc(C(C)C)c(CCCC(=O)O)c(-c2ccc(F)cc2)c1CO [Example 92, 2,6-Diisopropyl-3-hydroxymethyl-4-(4-fluorophenyl)-5-(3carboxypropyl)pyridine]
 | 30.2% | CCCCCc1c(C(C)C)nc(C(C)C)c(CCO)c1-c1ccc(F)cc1 [Example 119, 2,6-Diisopropyl-3-(2-hydroxyethyl)-4-(4fluorophenyl)-5-pentylpyridine]
